The source of these data is patent publication US20170128480A1, “Cardiac Glycosides for the Treatment of Hypercholesterolemia” (priority 2015, published 2017).

Experiment [1] deals with FH patient-specific iPSC-derived hepatocytes. As to the kind of experiment: ApoB-100 ELISA on culture medium of FH patient-specific iPSC-derived hepatocytes ([…] screen and triplicate validation). The following applies: tested in triplicate; FIG. 3. The class given is cell-based, human.
Protocol: ApoB-100 secretion is measured by enzyme linked immunosorbent assay (ELISA) using an antibody that specifically detects lipidated apoB-100, which represents lipoprotein particles secreted by the iPSC-derived hepatocytes. […] FH patient-specific iPSC cells are differentiated to hepatocyte-like cells in 96-well plates and the levels of lipidated ApoB-100 are measured before and after the application of 2320 small molecules from the [sequence] collection drug library (FIGS. 2A-B).
Using the before-drug and after-drug ApoB-100 concentration for each individual well (see the Examples below; each well represents 1 drug), a post:pre drug ratio of ApoB-100 is generated (referred to as delta-apoB-100; FIGS. 2A and 2B) and primary hits are identified by z-score analysis (FIG. 2B) as described by Zhang (Zhang, X. D., J Biomol Screen 16, 775-785 (2011)). A z-score is calculated for each compound, representing a multiple of the standard deviation of all the compounds included in the parent plate (30 plates total—FIG. 2A). […]
Pre-drug and post-drug apoB-100 concentrations are determined for each compound in the [sequence] library using a standard curve and four-parameter logistic (4PL) regression model. […] Primary hits are validated in secondary replicate experiments (n=3), and statistical significance is determined by a Student's t-test. […]
Experiment [2] has as its target Na+/K+-ATPase α3 subunit (Rattus norvegicus, UniProt P06687). The following applies: Kolansky et al. 1992; cited from earlier work.
Experiment [3] deals with Na+/K+-ATPase α2 subunit (Rattus norvegicus, UniProt P06686). The following applies: Kolansky et al. 1992; cited from earlier work.
Experiment [4] has as its system hepatocytes. Description: Lipoprotein profile (VLDL/LDL/HDL) of hepatocyte secretion by FPLC. The class given is cell-based. The following applies: 310 nm; 4-hr collection period. The protocol: FIGS. 13A-B (A) is a graph of the results of a FPLC showing the impact of Digoxin and Proscillaridin on the increase in the size of LDL/VLDL particles and the increase of HDL particle number in serum (FIG. 13B, enhanced).
The experiment is a simple collection of cell culture media and then uses a known assay to measure VLDL/LDL/HDL by HPLC.
Cell culture media (the serum samples of example 5) is collected and then using a known assay (see, Example 3) VLDL/LDL/HDL is measured by FPLC HPLC. The experiment was performed by Evanthia Pashos Ph.D, a post-doctoral researcher at the University of Pennsylvania. Dr. Pashos was instructed what concentration of drugs to use, how long to incubate, and to record lipoprotein profiles for HDL, LDL, VLDL. […] Hepatocyte secretion was collected and analyzed over a 4-hr collection period.

Experiment [5] relates to human ApoB-100. Description: Drug treatment of humanized FRGN avatar mice, serum human ApoB-100 and albumin by ELISA. The class given is in vivo. The following applies: i.p., 48-hour period, Digoxin 0.5 mg/kg, Proscillaridin 0.6 mg/kg/day, p≦0.05. As to the method:
Prior to any drug or vehicle treatment, the ratio of ApoB-100 to albumin is approximately 30% higher in the serum of avatars repopulated with hepatocytes from donor A compared to donor B (p=0.032) (FIG. 8A). Human ApoB-100 and albumin is then measured before and after treatment with DMSO (vehicle), Digoxin or Proscillaridin, over a 48-hour period of time (FIG. 8C). […] The concentration of human albumin is unaffected in the serum of the same animals (FIG. 8B).
A sandwich ELISA to detect human albumin in tissue culture supernatants and mouse sera uses a 1:100 dilution of a capture human albumin coating antibody (Bethyl laboratories, A80-129A) and a 1:85,000 dilution of a Horseradish Peroxidase (HRP) conjugated human albumin detection antibody (Bethyl laboratories, A80-129P). Bound antibody is detected using 3,3′,5,5′-tetramethylbenzidine (TMB) and the concentration of albumin in each sample is determined by comparing to a standard curve (Bethyl laboratories, RS10-110). Human lipidated apoB-100 is detected using a commercial sandwich ELISA (product code: 3715-1H-6; MabTech, Inc.) and detected using TMB. The concentration of apoB-100 is determined by comparing to a standard curve using lipidated apoB-100 supplied by the manufacturer.
Fah^−/−Rag2^−/−IL2 gr^−/−NOD (FRGN) mice are generated and supplied by Dr. Markus Grompe. […]

Turning to Gitoxin, in experiment [1], the “Reductions of ApoB-100 levels, of DMSO controls” value worked out at 27%.

Take `C[C@@H]1O[C@@H](O[C@H]2C[C@@H](O)[C@]3(CO)[C@H]4[C@H](O)C[C@]5(C)[C@@H](C6=CC(=O)OC6)CC[C@]5(O)[C@@H]4CC[C@]3(O)C2)[C@H](O)[C@H](O)[C@H]1O` [Ouabain, Ouabain (Strophanthin)]: in experiment [1], the “Reductions of ApoB-100 levels, of DMSO controls” value was 71%. The ouabain sensitivity in experiment [2] is on record as approximately 80 nM; in experiment [3], “approximately 40 nM”.

Take `C[C@@H]1OC(O[C@@H]2C=C3CC[C@@H]4[C@H](CC[C@]5(C)[C@@H](c6ccc(=O)oc6)CC[C@]45O)[C@@]3(C)CC2)[C@H](O)C(O)C1O` (stereo partly drawn) [Proscillaridin]: in experiment [4], the HDL secretion entry was “increase HDL secretion”, the VLD/LDL particle size result is reported as “increase VLD/LDL particle size” and the VLD/LDL total quantity entry was “reduce VLD/LDL total quantity”. For the same compound, the “serum human ApoB-100 levels” value in experiment [5] is on record as “significantly reduces serum ApoB-100 levels”.

As to `CC1O[C@@H](O[C@H]2C(O)C[C@H](O[C@H]3C(O)C[C@H](OC4CC[C@@]5(C)[C@H](CC[C@@H]6[C@@H]5C[C@@H](O)[C@]5(C)[C@@H](C7=CC(=O)OC7)CC[C@]65O)C4)OC3C)OC2C)CC(O)[C@@H]1O` (stereo partly drawn) [Digoxin], in experiment [4], the HDL secretion result is given as “increase HDL secretion”, the VLD/LDL particle size entry is listed as “increase VLD/LDL particle size” and the VLD/LDL total quantity entry is listed as “reduce VLD/LDL total quantity”. In addition, the “serum human ApoB-100 levels” value in experiment [5] is “significantly reduces serum ApoB-100 levels”.
